The source of these data is patent US6395281B1, “Cosmetic skin conditioning compositions containing red yeast rice extract” (Unilever Home & Personal Care USA, a division of Conopco, …, priority 1999, dated 2002).

Test [1] concerns Neonatal human dermal fibroblasts. Nature of the test: Procollagen I production by fibroblasts (dot blot). The format is cell-based. As to conditions: 50 μg; for Procollagen 1 production: densitometer reading. The method, then:
This example measured production of procollagen I by fibroblasts in response to treatment with various test compounds.
Methodology for determination of (Pro) Collagen-I protein expression using Dot Blot technique:
Neonatal human dermal fibroblasts (passage 4 to 8) were purchased from Clonetics Corp. San Diego, Calif. All materials for cell culture were purchased from Life technologies, New York and used in passages 5-10. Cells were seeded at a density of approximately 7,500/well in the inner 48 wells of a 96-well plate in DMEM (Dulbecco's Modified Eagle's Medium), high glucose supplemented with 2 mM L-glutamine, 10% fetal bovine serum, and antibiotic and. antimycotic solutions. Cells were grown to confluence and washed with serum free, phenol red free DMEM and cells dosed with 200 μl actives in media. Each dosing was replicated in a total of six to twelve wells. After 24 hours, the test compound solution or the control solution was removed and cells re-dosed with 100 μl actives in media. After 24 hours incubation, remove media and store at 4° C. with protease inhibitor (Aprotinin 1:200) until further use. The test compound solution was then diluted in 1X Tris buffered saline (pH=8) buffer (approximately 20 μl media in 200 μl buffer).
PVDF membrane soaked in methanol and 2 filter papers in 1X TBS (pH=8). Bio-Rad dot blot apparatus was set up with filter paper on bottom, membrane on top, tighten, added 100 μl TBS per well. Vacuum dry. Vortex or mix, then load 100 μl diluted sample per well; let it sit for 15 minutes and then vacuum dry. Remove membrane from the apparatus, cut off excess, and notch bottom right comer for orientation. Place membrane in blocking buffer (5% milk powder in 1X TBS-Tween) for 1 hour at room temperature with shaking. […] Remove membrane, do a 10 minute wash three to five times in TBS/0.1% Tween. Incubate for 1 hour at RT or O/N at 4° C. in 5 ml 1:1000 anti-rat conjugated alkaline phosphatase (AP) secondary antibody in 1-% milk in TBS-T in a sealed bag with shaking. Wash membrane for 15 minutes five to eight times with TBS-T, and final rinse with 1X PBS. The membrane was developed using Chemiluminiscent substrate (Boehringer Mannheim, Ind.) and results were analysed using a laser densitometer (Bio-Rad instrument). Fold increase was calculated as a ratio of densitometer reading for cells treated with a test compound over control.

The next test deals with ZR75 cells. The test can be described thus: Assay for estrogen like activity: [methyl-3H] thymidine incorporation in ZR75 cells. The format is cell-based, human. As to conditions: 0.27 × 10^−6% (10 nM). The text has this:
The ZR75 cell line is a ductal breast carcinoma cell line, originally isolated from malignant mammary epithelium of a person (10). The chromosome number is triploid and the trypsin-Giemsa banding patterns indicate a unique karyotype distinct from HeLa cells. While containing receptors for estrogen, insulin, progesterone and other hormones, ZR75 cells only respond through an increase in proliferation to estrogen and insulin. The cell line contains high affinity estrogen-specific receptors. Therefore, this cell line is used for testing estrogen-like activity.
The cells are split 1:2 once every week and seeded in 24 well plates at one hundred thousand cells per milliliter per well for the assay.
After growing for twenty-four hours, the media was removed, the cells were washed with PBS and one ml of RPMI 1640 without serum was readded. Different dilutions of the red yeast rice extract were then dosed directly into each well. After another twenty-four hours, one microCurie of [methyl-3H] thymidine was added to the media in each well. The media was removed after twenty-four hours to begin the thymidine uptake assay. […] The samples were transferred to scintillation vials and after adding five milliliters of counting fluid (scintiverse), the vials were counted for five minutes each on a setting for tritium. […] Data was calculated as % of control to normalize for experiment-to-experiment variation.
In general terms: Incorporation of labelled thymidine or its analogues reports DNA synthesis.

A further test relates to human sebocytes. The test can be described thus: Sebum secretion by sebocytes (14C-acetate incorporation). It counts as cell-based. Conditions: 0.001%. On the procedure:
This example investigated the effect of red yeast rice on sebum secretion by sebocytes. Secondary cultures of human sebocytes obtained from an adult […] were grown in 48-well tissue culture plates (Costar Corp.; Cambridge, Mass.) until confluent. Sebocyte growth medium consisted of Clonetics Keratinocyte Basal Medium (KBM) supplemented with 14 μg/ml bovine pituitary extract, 0.4 μg/ml hydrocortisone, 5 μg/ml insulin, 10 ng/ml epidermal growth factor, 1.2×10−10 M cholera toxin, 100 units/ml penicillin, and 100 μg/ml streptomycin. All cultures were incubated at 37° C. in the presence of 7.5% CO2. Medium was changed three times per week. On the day of experimentation, the growth medium was removed and the sebocytes washed three times with sterile Dulbecco's Modified Eagle Medium (DMEM; phenol red free). Fresh DMEM was added to each sample (triplicates in Table 4 and duplicated in Table 5) with 5 microliter of test agent solubilized in ethanol. Controls consisted of addition of ethanol alone. Each plate was returned to the incubator for 20 hours followed by the addition of 14C-acetate buffer (5 mM final concentration, 56 mCi/mmol specific activity). […] Radioactive label remaining in the sebocytes was harvested and counted using a Beckman scintillation counter. […]

In test [2] the test system is Cellular Retinoic Acid Binding Protein 2 (CRABP-2) in human adult fibroblasts. Nature of the test: CRABP-2 production by fibroblasts (Western blot). It counts as cell-based. As to conditions: 10e-6M retinoid alone, 48 hours. The method, then: This example investigated the effect of various tested compounds on CRABP-2 production by fibroblasts.
Human adult fibroblasts obtained from su n-protected inner arm of 25-30 year […] volunteer were used in this. Cells were grown in 1:1 DMEM/Hams F12 media containing 10% FBS, maintained at 37° C. in a 5% CO2 atmosphere under normal atmospheric oxygen tension. Third passage adult fibroblasts were grown in DMEM media with 10% FBS in 12-well plates at a seeding density of 2500 cells/ml/well. The cells at 80% confluence were rinsed in serum free and phenol red free (PRF) DMEM media twice. Pre-treatment with test compound for 4 hours was conducted and then dosed with retinoids and was incubated for 48 hours.
After the incubation, the wells were was ed twice with 1X PBS and the cell monolayer was harvested in 100 μl cell lysis buffer (contains 1X PBS, 1% TritonX, 0.5% sodium deoxycholate, 0.1% SDS containing p tease inhibitor (10 mg/ml PMSF in isopropanol, 10 μl/ml). The suspension was spun at 14000 rpm for 10 minutes, the supernatant collected and an aliquot of this supematant was used for protein quantification. Protein concentration was determined using Pierce protein kit. The remainder of 100 μl supernatant (cell lysate) was denatured in a mixture of 40 μl sample buffer (NOVEX) and 0.5% Beta mercaptoethanol (IBME) and by boiling the sample for 5 minutes. Equal amount of protein was then loaded onto 16% Tris-glycine gels for protein analysis by SDS page and Western Immuno-blotting for CRABP-2 protein expression.
The gels were run and transferred to nitrocellulose blots and Western Blotting was carried out using monoclonal antibodies to CRABP-2 according to standard procedures. The CRABP-2 protein band was visualized in the Western Blots using the chemiluminescence system obtained from Santa Cruz Biotechnology (SantaCruz, Calif.). The bands in the film were quantitated by densitometric scanning, the-data from triplicate samples were calculated as % of control and expressed in the following tables as % increase over control (with control as 100%) +/−SD of triplicates.

On to `CCCCCCCCCCCCCCCC(=O)OC[C@H](O)[C@H]1OC(=O)C(O)=C1O` [Ascorbyl Palmitate, ascorbyl palmitate], for which, in test [1], the “Procollagen 1 production % of Control” value was 103 +/− 48% and the “Procollagen 1 production” value is given as 0.775 +/− 0.36.

Consider `C[C@]12CC[C@@H]3c4ccc(O)cc4CC[C@H]3[C@@H]1CC[C@@H]2O` [Estradol, estradiol], for which the “cpm +/− SD (thymidine incorporation)” value in the test on ZR75 cells is 263982 +/− 711 cpm. Besides, the activity at 0.01 µM in the test with ZR75 cells (Homo sapiens, ZR75, read-out: thymidine incorporation % of control) worked out at 224%.

Regarding `O=S1(=O)OC(c2ccc(O)cc2)(c2ccc(O)cc2)c2ccccc21` [Phenol Red], the “% Reduction (sebum, 14C-acetate label)” value in the test with human sebocytes (first Table 4 (triplicates)) is 83.4%; in the test with human sebocytes (second table, printed as Table 4 (Table 5, duplicates)) it was 83.4%.

On to `CC1=C(/C=C/C(C)=C/C=C/C(C)=C/CO)C(C)(C)CCC1` [Retinol], for which, in test [2], the “CRABP-2 % of Control” value is recorded as 153 +/− 5% and the “CRABP-2 OD +/− SD” value was 1.91 +/− 0.06 OD.

`CC(=O)OC/C=C(C)/C=C/C=C(C)/C=C/C1=C(C)CCCC1(C)C` [Retinyl Acetate]: in test [2], the “CRABP-2 % of Control” value is listed as 398 +/− 157% and the “CRABP-2 OD +/− SD” value was 3.86 +/− 0.28 OD.

Regarding `CCCCC/C=C\C/C=C\CCCCCCCC(=O)OC/C=C(C)/C=C/C=C(C)/C=C/C1=C(C)CCCC1(C)C` [Retinyl linoleate], in test [2], the “CRABP-2 % of Control” value was 156 +/− 13% and the “CRABP-2 OD +/− SD” value is listed as 1.96 +/− 0.16 OD.

On to `CCCCCCCCCCCCCCCC(=O)OC/C=C(C)/C=C/C=C(C)/C=C/C1=C(C)CCCC1(C)C` [Retinyl palmitate], for which, in test [2], the “CRABP-2 % of Control” value is 178 +/− 33% and the “CRABP-2 OD +/− SD” value is recorded as 2.00 +/− 0.04 OD.

Regarding `O=C1O[C@H]([C@@H](O)CO)C([O-])=C1OP(=O)([O-])[O-].[Na+].[Na+].[Na+]` [Sodium ascorbyl phosphate, sodium ascorbyl phosphate], in test [1], the “Procollagen 1 production % of Control” value is on record as 116 +/− 27% and the “Procollagen 1 production” value is 0.871 +/− 0.2.

For the compound `O=C1O[C@H]([C@@H](O)CO)C(O)=C1O` [Vitamin C], in test [1], the “Procollagen 1 production % of Control” value is on record as 175 +/− 37% and the “Procollagen 1 production” value is 1.311 +/− 0.28.
